Results on 23 compounds are retold here after patent US7569724B2, “Carbamic acid compounds comprising an amide linkage as HDAC inhibitors” (Topotarget UK Limited, priority 2000, dated 2009).

One data set relates to HDAC (HeLa cell extract). Put plainly: Primary assay: deacetylase activity, HeLa cell extract as source of HDAC. Format: biochemical, human. The conditions noted are these: HeLa cell extract. An excerpt: Briefly, this assay relies on the release of radioactive acetate from a radioactively labelled histone fragment by the action of HDAC enzyme. Test compounds, which inhibit HDAC, reduce the yield of radioactive acetate. Signal (e.g., scintillation counts) measured in the presence and absence of a test compound provide an indication of that compound's ability to inhibit HDAC activity. Decreased activity indicates increased inhibition by the test compound.
The histone fragment was an N-terminal sequence from histone H4, and it was labelled with radioactively labelled acetyl groups using tritiated acetylcoenzyme A (coA) in conjunction with an enzyme which is the histone acetyltransferase domain of the transcriptional coactivator p300. […] The acetylated peptide was then separated from free acetyl coA by size exclusion chromatography on Sephadex G-15 (Sigma G-15-120), using distilled H2O as the mobile phase.
After purification of the radiolabelled histone fragment, it was incubated with a source of HDAC (e.g., an extract of HeLa cells (a rich source of HDAC), recombinantly produced HDAC1 or HDAC2) and any released acetate was extracted into an organic phase and quantitatively determined using scintillation counting. By including a test compound with the source of HDAC, that compound's ability to inhibit the HDAC was determined.
The HeLa cell extract was made from HeLa cells (ATCC Ref. No. CCL-2) by freeze-thawing three times in 60 mM TrisCl pH 8.0, 450 mM NaCl, 30% glycerol. Two cell volumes of extraction buffer were used, and particulate material was centrifuged out (20800 g, 4° C., 10 min). The supernatant extract having deacetylase activity was aliquotted and frozen for storage.
A source of HDAC (e.g., 2 μL of crude HeLa extract, 5 μL of HDAC1 or HDAC2; in elution buffer, as above) was incubated with 3 μL of radioactively labelled peptide along with appropriate dilutions of candidate compounds (1.5 μL) in a total volume of 150 μL of buffer (20 mM Tris pH 7.4, 10% glycerol). The reaction was carried out at 37° C. for one hour, after which the reaction was stopped by adding 20 μL of 1 M HCl/0.4 M sodium acetate. […] Radioactivity was measured using a Tri-Carb 2100TR Liquid Scintillation Analyzer (Packard).
Percent activity (% activity) for each test compound was calculated as: % activity={(S^C−B)/(S^o−B)}×100 wherein S^C denotes signal measured in the presence of enzyme and the compound being tested, S^o denotes signal measured in the presence of enzyme but in the absence of the compound being tested, and B denotes the background signal measured in the absence of both enzyme and compound being tested.

The subject of a further data set is HeLa cells. The data set is described as follows: Secondary assay: cell proliferation WST-1, HeLa. Format: cell-based. The settings on record: Homo sapiens, 48 h, read-out: Cell Proliferation Inhibition WST-1 (IC50 unless otherwise specified) HeLa. As for the experimental part: Compounds with HDAC inhibition activity, as determined using the primary assay, were subsequently evaluated using secondary cell-based assays. The following cell lines were used:
HeLa—Human cervical adenocarcinoma cell line (ATCC ref. No. CCL-2).
Cells were plated in 96-well plates at 3-10×10^3 cells/well in 100 μL of culture medium. The following day, different concentrations of candidate compounds were added and the cells incubated at 37° C. for 48 h. Subsequently, 10 μL/well of WST-1 reagent was added and the cells reincubated for 1 hour. After the incubation time, absorbance was measured.
WST-1 is a tetrazolium salt which is cleaved to formazan dye by cellular enzymes. An expansion in the number of viable cells results in an increase in the overall activity of mitochondrial dehydrogenases in the sample. This augmentation in the enzyme activity leads to an increase in the amount of formazan dye formed, which directly correlates to the number of metabolically active cells in the culture. The formazan dye produced is quantified by a scanning multiwell spectrophotometer by measuring the absorbance of the dye solution at 450 nm wavelength (reference wavelength 690 nm).
Percent activity (% activity) in reducing the number of viable cells was calculated for each test compound as: % activity={(S^C−B)/(S^o−B)}×100 wherein S^C denotes signal measured in the presence of the compound being tested, S^o denotes signal measured in the absence of the compound being tested, and B denotes the background signal measured in blank wells containing medium only.
IC50 values were calculated using the software package Prism 3.0 (GraphPad software Inc., San Diego, Calif.), setting top value at 100 and bottom value at 0.
On the technique in general: Formazan colour is commonly taken as a measure of viable cells.

Setting [1] is: read-out: HDAC Inhibition (IC50 unless otherwise specified) HeLa.
[2] abbreviates: comparative tables, read-out: HeLa IC50.

Where two headings read alike, the source gives them in different places.

Regarding `CN(C)c1ccc(C(=O)NCCCCC(=O)NO)c2ccccc12` [PX082534, 4-Dimethylamino-napthalene-1-carboxylic acid (4-hydroxycarbamoyl-butyl)-amide], the melting point – broadly, the temperature of the solid-liquid transition – was found to be 129 °C. In the data set on HDAC (HeLa cell extract) (setting [1]), the IC50 worked out at 1500 nM. Further, the IC50 with HDAC (HeLa cell extract) (setting [2]) was 1500 nM. The IC50 in the data set with HeLa cells came out at 24000 nM.

As to `O=C(CCCCCNC(=O)c1ccco1)NO` [PX105826, Furan-2-carboxylic acid (5-hydroxycarbamoyl-pentyl)-amide], the melting point was in the range of 113.5 to 115 °C. Also, the IC50 in the data set on HDAC (HeLa cell extract) (setting [1]) was determined as 396 nM. For the same compound, in the data set on HDAC (HeLa cell extract) (setting [2]), the IC50 came out at 400 nM. In addition, in the data set with HeLa cells, the IC50 amounted to 18000 nM.

In the case of `O=C(CCCCCNC(=O)c1cccc2ccccc12)NO` [PX105828, Naphthalene-1-carboxylic acid (5-hydroxycarbamoyl-pentyl)-amide], the melting point was in the range of 118 to 119 °C. Moreover, the IC50 in the data set on HDAC (HeLa cell extract) (setting [1]) was found to be 333 nM. The IC50 with HDAC (HeLa cell extract) (setting [2]) was 333 nM. For the same compound, the IC50 in the data set with HeLa cells was 17000 nM.

With `O=C(/C=C/C=C/c1ccccc1[N+](=O)[O-])NCCCCCC(=O)NO` [PX105830, (2E,4E)-5-(2-Nitrophenyl)penta-2,4-dienoic acid (5-hydroxycarbamoyl-pentyl)amide], the melting point is 131 to 133 °C. The IC50 with HDAC (HeLa cell extract) (setting [1]) came to 82 nM. The IC50 with HeLa cells is 14000 nM.

The compound `O=C(/C=C/C=C/c1ccc([N+](=O)[O-])cc1)NCCCCCC(=O)NO` [PX105847, (2E,4E)-5-(4-Nitrophenyl)penta-2,4-dienoic acid (5-hydroxycarbamoyl-pentyl)-amide] displayed a melting point of 111 to 113 °C. Besides, the IC50 with HDAC (HeLa cell extract) (setting [1]) was found to be 75 nM. The IC50 with HeLa cells is 8300 nM.

In turn, `O=C(/C=C/c1ccco1)NCCCCCC(=O)NO` [PX106491, 3-Furan-2-yl-N-(5-hydroxycarbamoyl-pentyl)-acrylamide] displayed a melting point of 151 to 152.5 °C. Besides, the IC50 in the data set with HDAC (HeLa cell extract) (setting [1]) worked out at 83 nM. Also, the IC50 in the data set with HDAC (HeLa cell extract) (setting [2]) was found to be 83 nM. In addition, the IC50 with HeLa cells is 520 nM.

In turn, `CC(C)(C)c1ccc(C(=O)NCCCCCC(=O)NO)cc1` [PX106496, 4-tert-Butyl-N-(5-hydroxycarbamoylpentyl)benzamide] gave a melting point of 150 to 151.5 °C. Also, the IC50 with HDAC (HeLa cell extract) (setting [1]) was found to be 82 nM. Besides, the IC50 with HeLa cells stood at 5800 nM.

Take `O=C(/C=C/C=C/c1ccccc1)NCCCCCCC(=O)NO` [PX106518]: the melting point lay in the range of 147 to 149 °C. The IC50 in the data set on HDAC (HeLa cell extract) (setting [1]) worked out at 62 nM. Moreover, the IC50 in the data set on HDAC (HeLa cell extract) (comparative tables, no unit in cell, read-out: HeLa IC50) stood at 62 nM. Also, in the data set with HeLa cells, the IC50 came out at 650 nM.

`C/C(=C\C=C\c1ccccc1)C(=O)NCCCCCC(=O)NO` [PX106520, (2E,4E)-2-Methyl-5-phenylpenta-2,4-dienoic acid (5-hydroxycarbamoylpentyl)-amide] registered a melting point of 158 to 160 °C. For the same compound, the IC50 in the data set on HDAC (HeLa cell extract) (setting [1]) was 63 nM. The IC50 with HeLa cells was 8400 nM.

Consider `CN(C)c1ccc(/C=C/C=C/C(=O)NCCCCCC(=O)NO)cc1` [PX106527, (2E,4E)-5-(4-Dimethylamino-phenyl)-penta-2,4-dienoic acid (5-hydroxycarbamoyl-pentyl)-amide], for which the melting point lay within 172 to 174 °C. Further, the IC50 with HDAC (HeLa cell extract) (setting [1]) turned out to be 24 nM. The IC50 in the data set with HDAC (HeLa cell extract) (setting [2]) is 24 nM. Further, the IC50 with HeLa cells is 1000 nM.

Consider `O=C(CCCCCCC(=O)NCCc1c[nH]c2ccccc12)NO` [PX116216, Octanedioic acid hydroxyamide [2-(1H-indol-3-yl)-ethyl]-amide], for which the melting point is 118.5 to 120 °C. Also, the IC50 in the data set with HDAC (HeLa cell extract) (setting [1]) stood at 100 nM. Besides, the IC50 in the data set on HeLa cells was 6000 nM.

For `O=C(CCCCCNC(=O)c1ccc(Br)o1)NO` [PX116221, 5-Bromo-furan-2-carboxylic acid (5-hydroxycarbamoyl-pentyl)-amide], the melting point fell in the range of 122 to 124 °C. Moreover, the “HDAC Inhibition HeLa, percent” value with HDAC (HeLa cell extract) (@ 500 nM) was 72% @ 500 nM.

The compound `O=C(CCCCCCC(=O)NCCc1cccc2ccccc12)NO` [PX116224, Octanedioic acid hydroxyamide (2-naphthalen-1-yl-ethyl)-amide] registered a melting point of 120 to 121.5 °C. The “HDAC Inhibition HeLa, percent” value in the data set with HDAC (HeLa cell extract) (@ 500 nM) was 78% @ 500 nM.

In turn, `O=C(/C=C/c1cccs1)NCCCCCC(=O)NO` [PX117247, N-(5-Hydroxycarbamoyl-pentyl)-3-thiophen-2-yl-acrylamide] had a melting point of 151 to 153 °C. Also, the IC50 in the data set on HDAC (HeLa cell extract) (setting [1]) turned out to be 19 nM. In addition, the IC50 with HeLa cells stood at 570 nM.

In turn, `O=C(CCCCCCC(=O)NCC(c1ccccc1)c1ccccc1)NO` [PX117249, Octanedioic acid (2,2-diphenyl-ethyl)-amide hydroxyamide] gave a melting point of 123 to 123.5 °C. For the same compound, the “HDAC Inhibition HeLa, percent” value in the data set on HDAC (HeLa cell extract) (@ 500 nM) worked out at 64% @ 500 nM. In addition, the IC50 with HeLa cells is 11000 nM.

`O=C(CCCCCNC(=O)CCCCc1ccccc1)NO` [PX117261, 6-(5-Phenyl-pentanoylamino)-hexanoic acid hydroxyamide] displayed a melting point of 97 to 98 °C. In the data set on HDAC (HeLa cell extract) (@ 500 nM), the “HDAC Inhibition HeLa, percent” value worked out at 51% @ 500 nM. The IC50 in the data set with HeLa cells is 71000 nM.

On to `O=C(CCCCCNC(=O)[C@H](Cc1c[nH]c2ccccc12)NC(=O)Cc1ccc2ccccc2c1)NO` [PX117406, N-Hydroxy-6-[((2S)-3-(1H-indol-3-yl)-2-{[2-(2-naphthyl)acetyl]-amino}propanoyl)amino]-hexanamide], for which the melting point is 112 to 114 °C. Further, in the data set with HDAC (HeLa cell extract) (@ 500 nM), the “HDAC Inhibition HeLa, percent” value is 48% @ 500 nM. In addition, the IC50 in the data set with HeLa cells came out at 6900 nM.

`O=C(CCCCCNC(=O)[C@H](Cc1c[nH]c2ccccc12)NC(=O)CCCc1ccccc1)NO` [PX117407, N-hydroxy-6-({(2S)-3-(1H-indol-3-yl)-2-[(4-phenylbutanoyl)amino]-propanoyl}amino)-hexanamide] registered a melting point of 106 to 108 °C. For the same compound, the “HDAC Inhibition HeLa, percent” value in the data set on HDAC (HeLa cell extract) (@ 500 nM) is reported as 40% @ 500 nM. Besides, the IC50 with HeLa cells was found to be 13000 nM.

In turn, `O=C(CCCCCCC(=O)NC(c1ccccc1)c1ccccc1)NO` [PX117417, N^1-benzhydryl-N^8-hydroxyoctanediamide] registered a melting point of 155 to 156.5 °C. Further, the “HDAC Inhibition HeLa, percent” value in the data set with HDAC (HeLa cell extract) (@ 500 nM) came to 56% @ 500 nM.

Compound `O=C(CCCCCCC(=O)NCc1ccccc1)NO` [PX117418, Octanedioic acid benzylamide hydroxyamide] registered a melting point of 126 to 126.5 °C. Further, the “HDAC Inhibition HeLa, percent” value in the data set with HDAC (HeLa cell extract) (@ 500 nM) stood at 39% @ 500 nM.

In turn, `O=C(CCCCCNC(=O)Cc1csc2ccccc12)NO` [PX117442, 6-(2-Benzothiophen-3-yl-acetylamino)-hexanoic acid hydroxyamide] yielded a melting point of 113 to 115 °C. In the data set with HDAC (HeLa cell extract) (@ 500 nM), the “HDAC Inhibition HeLa, percent” value was found to be 31% @ 500 nM.

`CN(C)c1ccc(CC(=O)NCCCCCC(=O)NO)cc1` [PX117458, 6-[2-(4-Dimethylamino-phenyl)-acetylamino]-hexanoic acid hydroxyamide] returned a melting point of 124 to 126 °C. For the same compound, the “HDAC Inhibition HeLa, percent” value in the data set with HDAC (HeLa cell extract) (@ 500 nM) is on record as 9% @ 500 nM. The “percent HDAC inhibition at the stated concentration” value in the data set with HDAC (HeLa cell extract) (comparative tables, @ 500 nM) is given as 9% @ 500 nM.

In the case of `O=C(CCCCCCC(=O)NCc1cccc2ccccc12)NO` [PX117459, Octanedioic acid hydroxyamide (naphthalen-1-ylmethyl)-amide], the melting point was in the range of 141 to 143 °C. The “HDAC Inhibition HeLa, percent” value in the data set on HDAC (HeLa cell extract) (@ 500 nM) is on record as 63% @ 500 nM.
